The target of assay [1] is T1, DEK20 (phosphoglycerate dehydrogenase1, PGDH1) (Zea mays, UniProt A0A1D6DW07).
T1 construct: gene LOC103645840; recombinant His-DEK20
T1 sequence (A0A1D6DW07 1-387): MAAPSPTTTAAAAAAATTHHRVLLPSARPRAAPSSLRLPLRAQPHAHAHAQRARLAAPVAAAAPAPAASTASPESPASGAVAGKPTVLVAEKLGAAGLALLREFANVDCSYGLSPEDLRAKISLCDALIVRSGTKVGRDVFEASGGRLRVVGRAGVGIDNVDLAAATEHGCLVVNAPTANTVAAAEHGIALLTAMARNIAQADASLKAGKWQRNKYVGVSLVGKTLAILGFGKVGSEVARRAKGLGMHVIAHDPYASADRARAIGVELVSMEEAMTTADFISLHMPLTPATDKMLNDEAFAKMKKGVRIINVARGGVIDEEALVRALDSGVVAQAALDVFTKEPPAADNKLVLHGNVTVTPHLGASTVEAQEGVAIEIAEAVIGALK
Kind of assay: microscale thermophoresis (MST). Type of assay: binding. In general terms: MST reads how a fluorescent partner responds to local heating, with and without ligand.

In assay [2] the target is T2, DEK20 (phosphoglycerate dehydrogenase1, PGDH1) (Zea mays, UniProt A0A1D6DW07, S282L).
T2 construct: gene LOC103645840; recombinant His-DEK20
As to the kind of experiment: microscale thermophoresis (MST). It counts as binding.

Assay [3] has as its target DEK20^WT (truncated DEK20, residues 1-387, substrate binding domain and nucleotide-binding domain) (maize (Zea mays)). As to the kind of experiment: crystal structure; apo form, 3.5 Å; about 16 mg/ml DEK20^WT crystallised in sodium nitrate, sodium phosphate dibasic, ammonium sulfate, HEPES/MOPS pH 7.5, glycerol, PEG 4000; solved by molecular replacement.

pKd: −log10 of the molar value.

Usually pKd stands for the negative decadic logarithm of the Kd, by convention in mol/L. By stoichiometry N is commonly meant a count of units in the complex or per binding partner.

T2 sequence (A0A1D6DW07 entry or part of it S282L): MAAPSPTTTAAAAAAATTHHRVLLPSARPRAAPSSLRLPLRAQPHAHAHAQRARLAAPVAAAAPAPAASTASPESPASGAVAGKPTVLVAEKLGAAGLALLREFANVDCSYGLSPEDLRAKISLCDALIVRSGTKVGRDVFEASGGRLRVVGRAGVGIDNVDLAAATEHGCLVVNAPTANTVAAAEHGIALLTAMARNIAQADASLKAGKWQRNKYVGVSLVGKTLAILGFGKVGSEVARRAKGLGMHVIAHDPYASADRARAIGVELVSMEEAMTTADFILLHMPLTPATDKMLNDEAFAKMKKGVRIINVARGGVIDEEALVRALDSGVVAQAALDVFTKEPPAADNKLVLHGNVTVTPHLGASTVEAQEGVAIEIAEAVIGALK

Consider `NC(=O)c1ccc[n+]([C@@H]2O[C@H](COP(=O)([O-])OP(=O)(O)OC[C@H]3O[C@@H](n4cnc5c(N)ncnc54)[C@H](O)[C@@H]3O)[C@@H](O)[C@H]2O)c1` [NAD^+], for which the figures for the pKd in assay [1] and in assay [2] were 4.49 and 5.09, respectively.

For the compound “DEK20^WT (truncated DEK20, residues 1-387, substrate binding domain and nucleotide-binding domain) (domain or fragment)”, the stoichiometry N in assay [3] was 2.
